This experiment relates to LXRα and/or LXRβ. In words: LXR/LXRE co-transfection assay (luciferase reporter, CV-1 cells). Particulars: IC50 or EC50 for LXR (LXRα and/or LXRβ, not distinguished), tested as described in Example 109, CV-1 cells. The experiment is classed as cell-based, human. Summed up: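 Luciferase readout after 20 h compound exposure at 37 °C in CV-1 cells transiently expressing human LXRα or LXRβ with RXRα and an LXRE-driven reporter. Dose-response over 8 points at ½-log spacing, 4 wells each, fitted for EC50/IC50; values average ≥3 independent experiments, efficacy as % of high control.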

For `CC(C)(O)c1cc(-c2ccc(-c3cccc(S(C)(=O)=O)c3)s2)n(-c2cccc(F)c2)n1` [Example 1258, 2-[1-(3-fluorophenyl)-5-{5-[3-(methylsulfonyl)phenyl]-2-thienyl}-1H-pyrazol-3-yl]propan-2-ol], the EC50 was in the range of 1000 to 10000 nM.
The molecule `CS(=O)(=O)c1cc(-c2ccc(-c3cc(C(F)(F)F)nn3-c3cc(Cl)ccc3Cl)s2)ccc1OCCN1CCOCC1` [Example 1259, 4-(2-{[4-{5-[1-(2,5-dichlorophenyl)-3-(trifluoromethyl)-1H-pyrazol-5-yl]-2-thienyl}-2-(methylsulfonyl)phenyl]oxy}ethyl)morpholine] yielded an EC50 of 1000 to 10000 nM.
As to `CS(=O)(=O)c1cc(-c2ccc(-c3cc(C(F)(F)F)nn3-c3cc(Cl)ccc3Cl)s2)ccc1OCCc1nnn[nH]1` [Example 1260, 5-(2-{[4-{5-[1-(2,5-dichlorophenyl)-3-(trifluoromethyl)-1H-pyrazol-5-yl]-2-thienyl}-2-(methylsulfonyl)phenyl]oxy}ethyl)-1H-tetrazole], the EC50 was 1000 to 10000 nM.
The result for `CC(C)(O)c1cc(-c2ccc(-c3cccc(S(C)(=O)=O)c3)s2)n(-c2ccccc2F)n1` [Example 1261, 2-[1-(2-fluorophenyl)-5-{5-[3-(methylsulfonyl)phenyl]-2-thienyl}-1H-pyrazol-3-yl]propan-2-ol] reads less than 1000 nM; that for `CC(C)(O)c1cc(-c2ccc(-c3cccc(S(C)(=O)=O)c3)s2)n(-c2ccccc2)n1` [Example 1262, 2-(5-{5-[3-(methylsulfonyl)phenyl]-2-thienyl}-1-phenyl-1H-pyrazol-3-yl)propan-2-ol], less than 1000 nM.
The result for `CC(C)(O)c1cc(-c2ccc(-c3cccc(S(C)(=O)=O)c3)s2)n(-c2ccc(F)cc2)n1` [Example 1263, 2-[1-(4-fluorophenyl)-5-{5-[3-(methylsulfonyl)phenyl]-2-thienyl}-1H-pyrazol-3-yl]propan-2-ol] reads 1000 to 10000 nM.
The molecule `CC(C)(O)c1cc(-c2ccc(-c3cccc(S(C)(=O)=O)c3)s2)n(-c2ccccn2)n1` [Example 1264, 2-(5-{5-[3-(methylsulfonyl)phenyl]-2-thienyl}-1-pyridin-2-yl-1H-pyrazol-3-yl)propan-2-ol] came in with an EC50 of 1000 to 10000 nM.
The result for `CC(C)(O)c1cc(-c2ccc(-c3cccc(S(C)(=O)=O)c3)s2)n(-c2ccc(F)cc2F)n1` [Example 1265, 2-[1-(2,4-difluorophenyl)-5-{5-[3-(methylsulfonyl)phenyl]-2-thienyl}-1H-pyrazol-3-yl]propan-2-ol] reads less than 1000 nM.
In turn, `CC(C)(O)c1cc(-c2ccc(-c3cccc(S(C)(=O)=O)c3)s2)n(-c2ccc(F)c(F)c2)n1` [Example 1267, 2-[1-(3,4-difluorophenyl)-5-{5-[3-(methylsulfonyl)phenyl]-2-thienyl}-1H-pyrazol-3-yl]propan-2-ol] came in with an EC50 of 1000 to 10000 nM.
The result for `CC(=O)c1cc(-c2ccc(-c3cccc(S(C)(=O)=O)c3)s2)n(-c2ccccc2)n1` [Example 1268, 1-(5-{5-[3-(methylsulfonyl)phenyl]-2-thienyl}-1-phenyl-1H-pyrazol-3-yl)ethanone] reads less than 1000 nM.
`CC(C)(O)c1cc(-c2ccc(-c3cccc(C#N)c3)s2)n(-c2ccccc2Cl)n1` [Example 1269, 3-{5-[1-(2-chlorophenyl)-3-(1-hydroxy-1-methylethyl)-1H-pyrazol-5-yl]-2-thienyl}benzonitrile] came in with an EC50 of 1000 to 10000 nM.
`CC(CO)NC(=O)c1cc(-c2ccc(-c3cccc(S(C)(=O)=O)c3)s2)n(-c2ccccc2Cl)n1` (stereo not drawn) [Example 1270, 1-(2-chlorophenyl)-N-(2-hydroxy-1-methylethyl)-5-{5-[3-(methylsulfonyl)phenyl]-2-thienyl}-1H-pyrazole-3-carboxamide] yielded an EC50 of 1000 to 10000 nM.
Molecule `CN(Cc1cccnc1)C(=O)c1cc(-c2ccc(-c3cccc(S(C)(=O)=O)c3)s2)n(-c2ccccc2Cl)n1` [Example 1271, 1-(2-chlorophenyl)-N-methyl-5-{5-[3-(methylsulfonyl)phenyl]-2-thienyl}-N-(pyridin-3-ylmethyl)-1H-pyrazole-3-carboxamide] registered an EC50 of 1000 to 10000 nM.
The molecule `CC(C)(O)c1cc(-c2ccc(-c3cccc(S(C)(=O)=O)c3)s2)n(-c2ncccc2F)n1` [Example 1272, 2-[1-(3-fluoropyridin-2-yl)-5-{5-[3-(methylsulfonyl)phenyl]-2-thienyl}-1H-pyrazol-3-yl]propan-2-ol] yielded an EC50 of 1000 to 10000 nM.
`CC(C)(O)c1cc(-c2ccc(-c3cccc(S(C)(=O)=O)c3)s2)n(-c2cccnc2Cl)n1` [Example 1273, 2-[1-(2-chloropyridin-3-yl)-5-{5-[3-(methylsulfonyl)phenyl]-2-thienyl}-1H-pyrazol-3-yl]propan-2-ol] returned an EC50 of less than 1000 nM.
The result for `CC(C)(O)c1cc(-c2ccc(-c3cccc(OC(F)(F)F)c3)s2)n(-c2ccccc2Cl)n1` [Example 1274, 2-[1-(2-chlorophenyl)-5-(5-{3-[(trifluoromethyl)oxy]phenyl}-2-thienyl)-1H-pyrazol-3-yl]propan-2-ol] reads 1000 to 10000 nM; that for `COC(=O)c1cccc(-c2ccc(-c3cc(C(=O)NCC(F)(F)F)nn3-c3ccccc3Cl)s2)c1` [Example 1275], 1000 to 10000 nM.
The result for `CC(C)(O)c1cccc(-c2ccc(-c3cc(C(=O)NCC(F)(F)F)nn3-c3ccccc3Cl)s2)c1` [Example 1276, 1-(2-chlorophenyl)-5-{5-[3-(1-hydroxy-1-methylethyl)phenyl]-2-thienyl}-N-(2,2,2-trifluoroethyl)-1H-pyrazole-3-carboxamide] reads 1000 to 10000 nM; that for `CS(=O)(=O)c1cccc(-c2ccc(-c3cc(C(=S)NCC(F)(F)F)nn3-c3ccccc3Cl)s2)c1` [Example 1277, 1-(2-chlorophenyl)-5-{5-[3-(methylsulfonyl)phenyl]-2-thienyl}-N-(2,2,2-trifluoromethyl)-1H-pyrazole-3-carbothioamide], less than 1000 nM; that for `CC(C)(O)c1nn(-c2ccccc2Cl)c(-c2ccc(-c3cccc(S(C)(=O)=O)c3)s2)c1Br` [Example 1278, 2-[4-bromo-1-(2-chlorophenyl)-5-{5-[3-(methylsulfonyl)phenyl]-2-thienyl}-1H-pyrazol-3-yl]propan-2-ol], less than 1000 nM.
As to `CC(C)(O)c1cc(-c2ccc(-c3cccc(S(C)(=O)=O)c3)s2)n(-c2cc(Cl)ccc2Cl)n1` [Example 1279, 2-[1-(2,5-dichlorophenyl)-5-{5-[3-(methylsulfonyl)phenyl]-2-thienyl}-1H-pyrazol-3-yl]propan-2-ol], the EC50 fell in the range of 1000 to 10000 nM.
The result for `CC(C)(O)c1cc(-c2ccc(-c3cccc(S(C)(=O)=O)c3)s2)n(-c2ccc(Cl)cc2Cl)n1` [Example 1280, 2-[1-(2,4-dichlorophenyl)-5-{5-[3-(methylsulfonyl)phenyl]-2-thienyl}-1H-pyrazol-3-yl]propan-2-ol] reads 1000 to 10000 nM; that for `CC(C)(O)c1cc(-c2ccc(-c3cccc(S(C)(=O)=O)c3)s2)n(-c2cccc(Cl)c2Cl)n1` [Example 1281, 2-[1-(2,3-dichlorophenyl)-5-{5-[3-(methylsulfonyl)phenyl]-2-thienyl}-1H-pyrazol-3-yl]propan-2-ol], less than 1000 nM; that for `CC(C)(O)c1cc(-c2ccc(-c3ccc4cc[nH]c4c3)cc2)n(-c2ccccc2Cl)n1` [Example 1282, 2-{1-(2-chlorophenyl)-5-[4-(1H-indol-6-yl)phenyl]-1H-pyrazol-3-yl}propan-2-ol], 1000 to 10000 nM.
The result for `CC(C)(O)c1cc(-c2ccc(-c3ccc4[nH]ccc4c3)cc2)n(-c2ccccc2Cl)n1` [Example 1283, 2-{1-(2-chlorophenyl)-5-[4-(1H-indol-5-yl)phenyl]-1H-pyrazol-3-yl}propan-2-ol] reads 1000 to 10000 nM; that for `Cn1ccc2cc(-c3ccc(-c4cc(C(C)(C)O)nn4-c4ccccc4Cl)cc3)ccc21` [Example 1284, 2-{1-(2-chlorophenyl)-5-[4-(1-methyl-1H-indol-5-yl)phenyl]-1H-pyrazol-3-yl}propan-2-ol], 1000 to 10000 nM; that for `CC(C)(O)c1cc(-c2ccc(-c3cccc(O)c3)cc2)n(-c2ccccc2Cl)n1` [Example 1285, 4′-[1-(2-chlorophenyl)-3-(1-hydroxy-1-methylethyl)-1H-pyrazol-5-yl]biphenyl-3-ol], 1000 to 10000 nM.
The result for `CC(C)(O)c1cc(-c2ccc(-c3cccc4[nH]ccc34)cc2)n(-c2ccccc2Cl)n1` [Example 1286, 2-{1-(2-chlorophenyl)-5-[4-(1H-indol-4-yl)phenyl]-1H-pyrazol-3-yl}propan-2-ol] reads 1000 to 10000 nM.
Molecule `CC(C)(O)c1cc(-c2ccc(-c3cccc(C(F)(F)F)c3)cc2)n(-c2ccccc2Cl)n1` [Example 1287, 2-{1-(2-chlorophenyl)-5-[3′-(trifluoromethyl)biphenyl-4-yl]-1H-pyrazol-3-yl}propan-2-ol] gave an EC50 of 1000 to 10000 nM.
The result for `CC(C)(O)c1cc(-c2ccc(-c3ccc(C(F)(F)F)cc3Cl)cc2)n(-c2ccccc2Cl)n1` [Example 1288, 2-{1-(2-chlorophenyl)-5-[2′-chloro-4′-(trifluoromethyl)biphenyl-4-yl]-1H-pyrazol-3-yl}propan-2-ol] reads 1000 to 10000 nM; that for `CC(C)(O)c1cc(-c2ccc(-c3ccc(C=O)s3)cc2)n(-c2ccccc2Cl)n1` [Example 1289, 5-{4-[1-(2-chlorophenyl)-3-(1-hydroxy-1-methylethyl)-1H-pyrazol-5-yl]phenyl}thiophene-2-carbaldehyde], 1000 to 10000 nM; that for `CC(=O)c1ccc(-c2ccc(-c3cc(C(C)(C)O)nn3-c3ccccc3Cl)cc2)s1` [Example 1290, 1-(5-{4-[1-(2-chlorophenyl)-3-(1-hydroxy-1-methylethyl)-1H-pyrazole-5-yl]phenyl}-2-thienyl)ethanone], 1000 to 10000 nM.
On to `COc1ncc(-c2ccc(-c3cc(C(C)(C)O)nn3-c3ccccc3Cl)cc2)cn1` [Example 1291, 2-[1-(2-chlorophenyl)-5-{4-[2-(methyloxy)pyrimidin-5-yl]phenyl}-1H-pyrazol-3-yl]propan-2-ol], for which the EC50 is 1000 to 10000 nM.

These data come from patent US8703805B2 (Exelixis Patent Company LLC, priority 2005, dated 2014).
